Reference: ChEMBL document CHEMBL1201862, “PubChem BioAssay data set” (2004)
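Test compounds were applied to cells in 96-well plates for 48 hours at 5 doses. GI50 is the concentration that inhibits growth by half.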 Activity calls are given as the source filed them. Rule as the data show it: active = GI50 up to about 1.1 µM and inactive = higher.

Experiments:
Test in all cases: growth of human tumour cells (NCI), 48 h
HCT-116 = tested on: HCT-116
U-251 = tested on: U-251
SK-OV-3 = tested on: SK-OV-3
HCT-15 = tested on: HCT-15
A549 = tested on: A549
OVCAR-8 = tested on: OVCAR-8
UACC-257 = tested on: UACC-257
COLO 205 = tested on: COLO 205
SK-MEL-5 = tested on: SK-MEL-5
HT-29 = tested on: HT-29
SR = tested on: SR
MCF7 = tested on: MCF7
SW-620 = tested on: SW-620
SNB-75 = tested on: SNB-75
OVCAR-5 = tested on: OVCAR-5
CCRF-CEM = tested on: CCRF-CEM
SF-539 = tested on: SF-539
UO-31 = tested on: UO-31
KM-20L2 = tested on: KM-20L2
DMS-114 = tested on: DMS-114

Measured: GI50

N#CC1(C#N)C(=O)c2ccncc2C1=O
> 100 µM: HCT-15
inactive: HCT-116 > 100 µM | U-251 > 100 µM | SK-OV-3 > 100 µM | A549 > 100 µM | OVCAR-8 > 100 µM | UACC-257 > 100 µM | COLO 205 > 100 µM | SK-MEL-5 > 100 µM | HT-29 > 100 µM | SR > 100 µM | MCF7 > 100 µM | SW-620 > 100 µM | SNB-75 > 100 µM | OVCAR-5 > 100 µM | CCRF-CEM > 100 µM | SF-539 > 100 µM | UO-31 > 100 µM

O=C1NC2=C(CCCC/C2=N\O)C12CCCCC2
> 100 µM: HCT-15
inactive: HCT-116 > 100 µM | U-251 > 100 µM | SK-OV-3 > 100 µM | KM-20L2 > 100 µM | A549 > 100 µM | UACC-257 > 100 µM | HT-29 > 100 µM | SR 80.9 µM | DMS-114 > 100 µM | SW-620 > 100 µM | SNB-75 > 100 µM | OVCAR-5 > 100 µM | SF-539 > 100 µM | UO-31 > 100 µM

C=C(C)[C@@H]1CCC2=C[C@H](CC(C)=CC3=CC(C)=C(O3)[C@@H]1OC)OC2=O
inactive: U-251 33.1 µM | A549 > 100 µM | OVCAR-8 40.7 µM | UACC-257 > 100 µM | COLO 205 > 100 µM | SK-MEL-5 > 100 µM | SR > 100 µM | MCF7 38.8 µM | SW-620 > 100 µM | SNB-75 63.5 µM | OVCAR-5 > 100 µM | CCRF-CEM > 100 µM | SF-539 77.3 µM | UO-31 > 100 µM
> 100 µM: HCT-15

CCOC(=O)c1ccc(N(CCOS(=O)(=O)c2ccc(C)cc2)CCOS(=O)(=O)c2ccc(C)cc2)cc1
inactive: HCT-116 27.3 µM | U-251 6.76 µM | A549 8.91 µM | OVCAR-8 > 100 µM | UACC-257 > 100 µM | COLO 205 > 100 µM | SK-MEL-5 > 100 µM | HT-29 > 100 µM | MCF7 7.05 µM | SW-620 1.95 µM | OVCAR-5 > 100 µM | CCRF-CEM 2.47 µM | UO-31 12.8 µM
active: SF-539 < 0.01 µM
> 100 µM: HCT-15

CCOC(=O)CC(=O)CSc1c(-c2ccccc2)c(=O)n(-c2ccccc2)c(=S)n1-c1ccccc1
> 100 µM: HCT-15
inactive: HCT-116 > 100 µM | U-251 > 100 µM | SK-OV-3 > 100 µM | A549 > 100 µM | OVCAR-8 > 100 µM | UACC-257 > 100 µM | COLO 205 > 100 µM | HT-29 > 100 µM | SR 95.1 µM | MCF7 > 100 µM | SW-620 > 100 µM | SNB-75 > 100 µM | OVCAR-5 > 100 µM | CCRF-CEM 51.4 µM | SF-539 > 100 µM | UO-31 > 100 µM

Cc1ccc(Nc2n[nH]c(NS(=O)(=O)c3cc(C(=O)Nc4ccc(Cl)cc4)c(Cl)cc3S)n2)cc1
> 100 µM: HCT-15
inactive: HCT-116 > 100 µM | U-251 54.8 µM | SK-OV-3 > 100 µM | A549 99.8 µM | OVCAR-8 > 100 µM | UACC-257 > 100 µM | COLO 205 > 100 µM | SK-MEL-5 > 100 µM | HT-29 89.9 µM | SR > 100 µM | MCF7 > 100 µM | SW-620 > 100 µM | SNB-75 > 100 µM | OVCAR-5 > 100 µM | CCRF-CEM > 100 µM | SF-539 > 100 µM | UO-31 > 100 µM

CC(=O)O[C@]12CCCCCC1C1(O)C(O)CCCC[C@H]12 (stereo partly specified)
inactive: U-251 > 100 µM | SK-OV-3 > 100 µM | KM-20L2 > 100 µM | A549 > 100 µM | OVCAR-8 > 100 µM | UACC-257 > 100 µM | COLO 205 > 100 µM | SK-MEL-5 > 100 µM | HT-29 > 100 µM | SR > 100 µM | DMS-114 > 100 µM | SW-620 > 100 µM | SNB-75 14.7 µM | CCRF-CEM > 100 µM | UO-31 > 100 µM
> 100 µM: HCT-15

O=C(O)Cc1cccc2c1Oc1ccccc1S2
inactive: HCT-116 > 100 µM | U-251 > 100 µM | SK-OV-3 > 100 µM | KM-20L2 > 100 µM | A549 > 100 µM | OVCAR-8 > 100 µM | UACC-257 > 100 µM | COLO 205 > 100 µM | SK-MEL-5 > 100 µM | HT-29 > 100 µM | DMS-114 > 100 µM | SW-620 > 100 µM | SNB-75 > 100 µM | CCRF-CEM > 100 µM | SF-539 > 100 µM | UO-31 > 100 µM
> 100 µM: HCT-15
